The target in this assay is T1, Recombinant human TPH1 (MBP tagged) (Homo sapiens, UniProt P17752).
T1 construct: cloning full length human TPH1 cDNA in to a bacterial pMAL-c5E expression vector; made in house; host or cells: E. coli BL21 (DE3)
T1 sequence (P17752 1-444): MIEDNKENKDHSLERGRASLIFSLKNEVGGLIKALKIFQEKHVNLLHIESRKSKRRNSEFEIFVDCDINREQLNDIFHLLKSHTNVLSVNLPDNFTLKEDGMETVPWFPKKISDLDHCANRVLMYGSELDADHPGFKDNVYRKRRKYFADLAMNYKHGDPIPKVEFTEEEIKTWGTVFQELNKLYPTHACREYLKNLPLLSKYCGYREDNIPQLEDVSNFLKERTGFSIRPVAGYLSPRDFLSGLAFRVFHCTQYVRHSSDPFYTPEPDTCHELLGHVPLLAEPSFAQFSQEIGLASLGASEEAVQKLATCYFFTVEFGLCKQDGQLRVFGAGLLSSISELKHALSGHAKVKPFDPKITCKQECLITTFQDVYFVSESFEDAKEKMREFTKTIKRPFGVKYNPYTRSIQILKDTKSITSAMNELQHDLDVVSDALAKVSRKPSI
As to the kind of experiment: TPH1 in vitro inhibition assay (kinetic fluorescence). Conditions: read-out: TPH1 Range (TPH1 inhibition IC50). The format is biochemical. The method, boiled down:
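Final mix: 15 nM MBP-TPH1, 30 μM Trp, 36 μM 6-methyltetrahydropterin, 25 μM ferrous ammonium sulfate, 50 mM MES pH 7.1, 1% DMSO, room temperature.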

Molecules are shown by their SMILES. pIC50: −log10 of the molar value.

The values that follow come from patent US11759462B2, “Spirocyclic compounds as tryptophan hydroxylase inhibitors” (priority 2013, dated 2023).

Regarding `Cc1ccn(-c2cc(-c3cnoc3)ccc2[C@@H](Oc2cc(N3CCC4(CC3)CN[C@H](C(=O)O)C4)nc(N)n2)C(F)(F)F)n1` [Example 1i, (S)-8-(2-amino-6-((R)-2,2,2-trifluoro-1-(4-(isoxazol-4-yl)-2-(3-methyl-1H-pyrazol-1-yl)phenyl)ethoxy)pyrimidin-4-yl)-2,8-diazaspiro[4.5]decane-3-carboxylic acid], the pIC50 – broadly, the IC50 on a negative log10 scale, so that one unit is a factor of ten – was 6.52 to 7.30.

Consider `Cc1ccn(-c2cc(C3=CCOCC3)ccc2[C@@H](Oc2cc(N3CCC4(CC3)CN[C@H](C(=O)O)C4)nc(N)n2)C(F)(F)F)n1` [Example 1j, (S)-8-(2-amino-6-((R)-1-(4-(3,6-dihydro-2H-pyran-4-yl)-2-(3-methyl-1H-pyrazol-1-yl)phenyl)-2,2,2-trifluoroethoxy)pyrimidin-4-yl)-2,8-diazaspiro[4.5]decane-3-carboxylic acid], for which the pIC50 is 6.52 to 7.30.

Consider `CC(=O)N1CC=C(c2ccc([C@@H](Oc3cc(N4CCC5(CC4)CN[C@H](C(=O)O)C5)nc(N)n3)C(F)(F)F)c(-n3ccc(C)n3)c2)CC1` [Example 1k, (S)-8-(6-((R)-1-(4-(1-acetyl-1,2,3,6-tetrahydropyridin-4-yl)-2-(3-methyl-1H-pyrazol-1-yl)phenyl)-2,2,2-trifluoroethoxy)-2-aminopyrimidin-4-yl)-2,8-diazaspiro[4.5]decane-3-carboxylic acid], for which the pIC50 is more than 7.30.

For `CCOc1ccc(-c2ccc([C@@H](Oc3cc(N4CCC5(CC4)CN[C@H](C(=O)O)C5)nc(N)n3)C(F)(F)F)c(-n3ccc(C)n3)c2)cc1` [Example 1q, (S)-8-(2-amino-6-((R)-1-(4′-ethoxy-3-(3-methyl-1H-pyrazol-1-yl)-[1,1′-biphenyl]-4-yl)-2,2,2-trifluoroethoxy)pyrimidin-4-yl)-2,8-diazaspiro[4.5]decane-3-carboxylic acid], the pIC50 was more than 7.30.

With `COc1ncc(-c2ccc([C@@H](Oc3cc(N4CCC5(CC4)CN[C@H](C(=O)O)C5)nc(N)n3)C(F)(F)F)c(-n3ccc(C)n3)c2)cn1` [Example 1r, (S)-8-(2-amino-6-((R)-2,2,2-trifluoro-1-(4-(2-methoxypyrimidin-5-yl)-2-(3-methyl-1H-pyrazol-1-yl)phenyl)ethoxy)pyrimidin-4-yl)-2,8-diazaspiro[4.5]decane-3-carboxylic acid], the pIC50 is more than 7.30.

As to `COc1ccc(-c2ccc([C@@H](Oc3cc(N4CCC5(CC4)CN[C@H](C(=O)O)C5)nc(N)n3)C(F)(F)F)c(-n3ccc(C)n3)c2)cn1` [Example 1s, (S)-8-(2-amino-6-((R)-2,2,2-trifluoro-1-(4-(6-methoxypyridin-3-yl)-2-(3-methyl-1H-pyrazol-1-yl)phenyl)ethoxy)pyrimidin-4-yl)-2,8-diazaspiro[4.5]decane-3-carboxylic acid], the pIC50 was more than 7.30.

For `Cc1ccn(-c2cc(-c3ccccc3)ccc2[C@@H](Oc2cc(N3CCC4(CC3)CN[C@H](C(=O)O)C4)nc(N)n2)C(F)(F)F)n1` [Example 1u, (S)-8-(2-amino-6-((R)-2,2,2-trifluoro-1-(3-(3-methyl-H-pyrazol-1-yl)-[1,1′-biphenyl]-4-yl)ethoxy)pyrimidin-4-yl)-2,8-diazaspiro[4.5]decane-3-carboxylic acid], the pIC50 is more than 7.30.

Take `Cc1ccn(-c2cc(-c3cccc(C#N)c3)ccc2[C@@H](Oc2cc(N3CCC4(CC3)CN[C@H](C(=O)O)C4)nc(N)n2)C(F)(F)F)n1` [Example 1w, (S)-8-(2-amino-6-((R)-1-(3′-cyano-3-(3-methyl-1H-pyrazol-1-yl)-[1,1′-biphenyl]-4-yl)-2,2,2-trifluoroethoxy)pyrimidin-4-yl)-2,8-diazaspiro[4.5]decane-3-carboxylic acid]: the pIC50 is more than 7.30.

`CC(=O)NCc1ccc(-c2ccc([C@@H](Oc3cc(N4CCC5(CC4)CN[C@H](C(=O)O)C5)nc(N)n3)C(F)(F)F)c(-n3ccc(C)n3)c2)cc1` [Example 1x, (S)-8-(6-((R)-1-(4′-(acetamidomethyl)-3-(3-methyl-1H-pyrazol-1-yl)-[1,1′-biphenyl]-4-yl)-2,2,2-trifluoroethoxy)-2-aminopyrimidin-4-yl)-2,8-diazaspiro[4.5]decane-3-carboxylic acid]: the pIC50 is more than 7.30.

As to `Cc1ccn(-c2cc(-c3ccc4cccnc4c3)ccc2[C@@H](Oc2cc(N3CCC4(CC3)CN[C@H](C(=O)O)C4)nc(N)n2)C(F)(F)F)n1` [Example 1z, (S)-8-(2-amino-6-((R)-2,2,2-trifluoro-1-(2-(3-methyl-1H-pyrazol-1-yl)-4-(quinolin-7-yl)phenyl)ethoxy)pyrimidin-4-yl)-2,8-diazaspiro[4.5]decane-3-carboxylic acid], the negative-log IC50 (pIC50) was more than 7.30.

With `COc1ccc([C@@H](Oc2cc(N3CCC4(CC3)CN[C@H](C(=O)O)C4)nc(N)n2)C(F)(F)F)c(-n2ccc(C)n2)c1` [Example 10l, (S)-8-(2-amino-6-((R)-2,2,2-trifluoro-1-(4-methoxy-2-(3-methyl-1H-pyrazol-1-yl)phenyl)ethoxy)pyrimidin-4-yl)-2,8-diazaspiro[4.5]decane-3-carboxylic acid], the pIC50 is 6.52 to 7.30.

`Cc1ccn(-c2cc(Br)ccc2[C@@H](Oc2cc(N3CCC4(CC3)CN[C@H](C(=O)O)C4)nc(N)n2)C(F)(F)F)n1` [Example 10m, (S)-8-(2-amino-6-((R)-1-(4-bromo-2-(3-methyl-1H-pyrazol-1-yl)phenyl)-2,2,2-trifluoroethoxy)pyrimidin-4-yl)-2,8-diazaspiro[4.5]decane-3-carboxylic acid]: the negative logarithm of the IC50 (pIC50) was more than 7.30.

As to `Cc1ccn(-c2ccc(Br)cc2[C@@H](Oc2cc(N3CCC4(CC3)CN[C@H](C(=O)O)C4)nc(N)n2)C(F)(F)F)n1` [Example 10n, (S)-8-(2-amino-6-((R)-1-(5-bromo-2-(3-methyl-1H-pyrazol-1-yl)phenyl)-2,2,2-trifluoroethoxy)pyrimidin-4-yl)-2,8-diazaspiro[4.5]decane-3-carboxylic acid], the pIC50 is more than 7.30.

Turning to `Nc1nc(O[C@H](c2ccc(Cl)cc2-n2ccc(C(F)(F)F)n2)C(F)(F)F)cc(N2CCC3(CC2)CN[C@H](C(=O)O)C3)n1` [Example 10p, (S)-8-(2-amino-6-((R)-1-(4-chloro-2-(3-(trifluoromethyl)-1H-pyrazol-1-yl)phenyl)-2,2,2-trifluoroethoxy)pyrimidin-4-yl)-2,8-diazaspiro[4.5]decane-3-carboxylic acid], the pIC50 is 6.52 to 7.30.

As to `CC(C)(C)c1ccn(-c2cc(Cl)ccc2[C@@H](Oc2cc(N3CCC4(CC3)CN[C@H](C(=O)O)C4)nc(N)n2)C(F)(F)F)n1` [Example 10pa, (S)-8-(2-amino-6-((R)-1-(2-(3-(tert-butyl)-1H-pyrazol-1-yl)-4-chlorophenyl)-2,2,2-trifluoroethoxy)pyrimidin-4-yl)-2,8-diazaspiro[4.5]decane-3-carboxylic acid], the pIC50 was 6.52 to 7.30.

As for `CC(C)c1ccn(-c2cc(Cl)ccc2[C@@H](Oc2cc(N3CCC4(CC3)CN[C@H](C(=O)O)C4)nc(N)n2)C(F)(F)F)n1` [Example 10q, (S)-8-(2-amino-6-((R)-1-(4-chloro-2-(3-isopropyl-1H-pyrazol-1-yl)phenyl)-2,2,2-trifluoroethoxy)pyrimidin-4-yl)-2,8-diazaspiro[4.5]decane-3-carboxylic acid], the pIC50 is more than 7.30.

With `Nc1nc(O[C@H](c2ccc(Cl)cc2-n2ccc(C3CC3)n2)C(F)(F)F)cc(N2CCC3(CC2)CN[C@H](C(=O)O)C3)n1` [Example 10r, (S)-8-(2-amino-6-((R)-1-(4-chloro-2-(3-cyclopropyl-1H-pyrazol-1-yl)phenyl)-2,2,2-trifluoroethoxy)pyrimidin-4-yl)-2,8-diazaspiro[4.5]decane-3-carboxylic acid], the pIC50 is more than 7.30.

With `CCc1ccc([C@@H](Oc2cc(N3CCC4(CC3)CN[C@H](C(=O)O)C4)nc(N)n2)C(F)(F)F)c(-n2ccc(C)n2)c1` [Example 12a, (S)-8-(2-amino-6-((R)-1-(4-ethyl-2-(3-methyl-H-pyrazol-1-yl)phenyl)-2,2,2-trifluoroethoxy)pyrimidin-4-yl)-2,8-diazaspiro[4.5]decane-3-carboxylic acid], the negative-log IC50 (pIC50) is 6.52 to 7.30.

Turning to `Cc1ccn(-c2cc(C(O)CO)ccc2[C@@H](Oc2cc(N3CCC4(CC3)CN[C@H](C(=O)O)C4)nc(N)n2)C(F)(F)F)n1` (stereo partly drawn) [Example 13, (3S)-8-(2-amino-6-((1R)-1-(4-(1,2-dihydroxyethyl)-2-(3-methyl-1H-pyrazol-1-yl)phenyl)-2,2,2-trifluoroethoxy)pyrimidin-4-yl)-2,8-diazaspiro[4.5]decane-3-carboxylic acid], the pIC50 is 6.52 to 7.30.

In the case of `Cc1ccn(-c2cc(C#N)ccc2[C@@H](Oc2cc(N3CCC4(CC3)CN[C@H](C(=O)O)C4)nc(N)n2)C(F)(F)F)n1` [Example 14, (S)-8-(2-amino-6-((R)-1-(4-cyano-2-(3-methyl-H-pyrazol-1-yl)phenyl)-2,2,2-trifluoroethoxy)pyrimidin-4-yl)-2,8-diazaspiro[4.5]decane-3-carboxylic acid], the pIC50 was more than 7.30.

In the case of `Cc1ccn(-c2cc(C(N)=O)ccc2[C@@H](Oc2cc(N3CCC4(CC3)CN[C@H](C(=O)O)C4)nc(N)n2)C(F)(F)F)n1` [Example 15, (S)-8-(2-amino-6-((R)-1-(4-carbamoyl-2-(3-methyl-H-pyrazol-1-yl)phenyl)-2,2,2-trifluoroethoxy)pyrimidin-4-yl)-2,8-diazaspiro[4.5]decane-3-carboxylic acid], the negative-log IC50 (pIC50) was 6.52 to 7.30.
